In US7251525B2, “Treatment of arrhythmias via inhibition of a multifunctional calcium/calmodulin-dependent protein kinase” (The Board of Trustees of the Leland Stanford Jr. University, priority 1997, dated 2007):

Key:
isolated rabbit hearts = experiment: Clofilium-induced early afterdepolarizations (EADs) in isolated perfused rabbit hearts; conditions: for left ventricular developed pressure (LVDP) following clofilium: clofilium 7.5 μmole/l
Description: FIG. 1. […] Data tracings show (from top to bottom) monophasic action potentials (MAP) and left ventricular (LV) pressure. The horizontal lines to the left of the LV pressure tracings (top to bottom) indicate 100 mm Hg and 0 mm Hg levels and 850 ms for panels A and B. All experiments with isolated hearts consisted of 3 periods. A fourth period (experimental period 4) was only added in hearts with EADs. Experimental periods are labeled 1-4 (top of page for both panels A and B). Experimental period 1 measurements represent control and follow >10 min of stabilization. […] Period 3 measurements follow addition of clofilium (7.5 μmole/l) and are taken at EAD initiation or from the longest action potential duration recorded over 30 min. Multiple EADs are seen as 2 oscillations during repolarization on the MAP tracings in experimental period 3. Secondary elevations in LV pressure coinciding with EADs are also seen in the LV pressure tracing in experimental period 3. Experimental period 4 measurements follow EAD termination by addition of nifedipine (10 μmole/l) (shown above) or Cd^2+ (200-500 μmole/l) (data not shown). The horizontal bars indicate the experimental conditions for both panels A and B. (B) Experimental design for isolated rabbit hearts treated with CaM kinase inhibitor KN-93. Arrangement of data tracings is the same as in FIG. 1A (above). Experimental periods are also the same as in FIG. 1A (above) except the active CaM kinase inhibitor KN-93 (0.5 μmole/l) was added 10 min prior to period 2 measurements. […] (C) Continuous record of EAD termination by nifedipine (10 μM) in a heart paced at a cycle length of 1500 ms. Data tracings show MAP with single EADs (top) and LV pressure (bottom). The horizontal lines to the left of the LV pressure tracings indicate 50 mm Hg and 0 mm Hg pressure levels (top to bottom). EAD termination occurs prior to the first discernible decrease (i.e. >10% below baseline) in LV pressure. The vertical arrow marks the first beat of EAD termination.
New Zealand White rabbits of either gender (2.7-3.2 kg) were treated with a heparin bolus (150 U/kg IV) and killed by pentobarbital (50 mg/kg IV) overdose. Hearts were rapidly excised and placed in ice-cold Tyrode's solution for dissection of extracardiac tissue. (Tyrode's solution was composed of (mmol/l) NaCl (130.0), NaHCO3 (20.0), glucose (5.6), KCl (3.0), CaCl2 (2.0), NaH2PO4 (1.8), MgCl24H2O(0.7).) The aorta was cannulated, and perfused retrograde with Tyrode's solution. The perfusate (200 ml) was recirculated through a warming bath and filling pressure was adjusted to 20 cm of H2O. Recirculation time was ˜1 min, based on the time to decrease in left ventricular (LV) pressure following addition of ICa blockers to the recirculating perfusate. Temperature was monitored using a thermistor probe positioned in the right ventricle (RV) and maintained at 33±1° C. by a closed loop feed back system. The perfusate was vigorously bubbled with 95% O2, 5% CO2 and pH was monitored throughout the experiments and adjusted to 7.4 with LN NaOH or HCl, as appropriate. Both atria were removed and drains were placed in the RV and LV apices. An electrocardiogram (ecg) lead was sutured to the LV apex and the proximal pulmonary artery. Epicardial pacing wires were inserted into the RV free wall. Bradycardia was produced by crushing the AV node with a forceps. Epicardial pacing maintained a minimum cycle length of 1500 ms (heart rate of 40 beats/min). Pacing output was adjusted to twice diastolic threshold. In most experiments LV pressure was continuously monitored with a solid state transducer (Camino Laboratories) placed in a saline filled latex balloon. The balloon was secured with a purse string suture around the left atrial remnant and pressure was adjusted to maximize the LV developed pressure (LVDP) keeping the LV end diastolic pressure <10 mmHg. […]

[1] = target: T1, L-type Ca2+ current (ICa) (Oryctolagus cuniculus, UniProt P15381); experiment: Whole cell voltage clamp of L-type Ca2+ current in single ventricular myocytes; type: cell-based, rabbit; conditions: for steady state inhibition of peak ICa: 0.5 μmol/l external application, cells dialyzed with BAPTA
T1 construct: endogenous in cells; host or cells: freshly isolated New Zealand White rabbit ventricular myocytes
T1 sequence (P15381 whole entry, other chains not shown): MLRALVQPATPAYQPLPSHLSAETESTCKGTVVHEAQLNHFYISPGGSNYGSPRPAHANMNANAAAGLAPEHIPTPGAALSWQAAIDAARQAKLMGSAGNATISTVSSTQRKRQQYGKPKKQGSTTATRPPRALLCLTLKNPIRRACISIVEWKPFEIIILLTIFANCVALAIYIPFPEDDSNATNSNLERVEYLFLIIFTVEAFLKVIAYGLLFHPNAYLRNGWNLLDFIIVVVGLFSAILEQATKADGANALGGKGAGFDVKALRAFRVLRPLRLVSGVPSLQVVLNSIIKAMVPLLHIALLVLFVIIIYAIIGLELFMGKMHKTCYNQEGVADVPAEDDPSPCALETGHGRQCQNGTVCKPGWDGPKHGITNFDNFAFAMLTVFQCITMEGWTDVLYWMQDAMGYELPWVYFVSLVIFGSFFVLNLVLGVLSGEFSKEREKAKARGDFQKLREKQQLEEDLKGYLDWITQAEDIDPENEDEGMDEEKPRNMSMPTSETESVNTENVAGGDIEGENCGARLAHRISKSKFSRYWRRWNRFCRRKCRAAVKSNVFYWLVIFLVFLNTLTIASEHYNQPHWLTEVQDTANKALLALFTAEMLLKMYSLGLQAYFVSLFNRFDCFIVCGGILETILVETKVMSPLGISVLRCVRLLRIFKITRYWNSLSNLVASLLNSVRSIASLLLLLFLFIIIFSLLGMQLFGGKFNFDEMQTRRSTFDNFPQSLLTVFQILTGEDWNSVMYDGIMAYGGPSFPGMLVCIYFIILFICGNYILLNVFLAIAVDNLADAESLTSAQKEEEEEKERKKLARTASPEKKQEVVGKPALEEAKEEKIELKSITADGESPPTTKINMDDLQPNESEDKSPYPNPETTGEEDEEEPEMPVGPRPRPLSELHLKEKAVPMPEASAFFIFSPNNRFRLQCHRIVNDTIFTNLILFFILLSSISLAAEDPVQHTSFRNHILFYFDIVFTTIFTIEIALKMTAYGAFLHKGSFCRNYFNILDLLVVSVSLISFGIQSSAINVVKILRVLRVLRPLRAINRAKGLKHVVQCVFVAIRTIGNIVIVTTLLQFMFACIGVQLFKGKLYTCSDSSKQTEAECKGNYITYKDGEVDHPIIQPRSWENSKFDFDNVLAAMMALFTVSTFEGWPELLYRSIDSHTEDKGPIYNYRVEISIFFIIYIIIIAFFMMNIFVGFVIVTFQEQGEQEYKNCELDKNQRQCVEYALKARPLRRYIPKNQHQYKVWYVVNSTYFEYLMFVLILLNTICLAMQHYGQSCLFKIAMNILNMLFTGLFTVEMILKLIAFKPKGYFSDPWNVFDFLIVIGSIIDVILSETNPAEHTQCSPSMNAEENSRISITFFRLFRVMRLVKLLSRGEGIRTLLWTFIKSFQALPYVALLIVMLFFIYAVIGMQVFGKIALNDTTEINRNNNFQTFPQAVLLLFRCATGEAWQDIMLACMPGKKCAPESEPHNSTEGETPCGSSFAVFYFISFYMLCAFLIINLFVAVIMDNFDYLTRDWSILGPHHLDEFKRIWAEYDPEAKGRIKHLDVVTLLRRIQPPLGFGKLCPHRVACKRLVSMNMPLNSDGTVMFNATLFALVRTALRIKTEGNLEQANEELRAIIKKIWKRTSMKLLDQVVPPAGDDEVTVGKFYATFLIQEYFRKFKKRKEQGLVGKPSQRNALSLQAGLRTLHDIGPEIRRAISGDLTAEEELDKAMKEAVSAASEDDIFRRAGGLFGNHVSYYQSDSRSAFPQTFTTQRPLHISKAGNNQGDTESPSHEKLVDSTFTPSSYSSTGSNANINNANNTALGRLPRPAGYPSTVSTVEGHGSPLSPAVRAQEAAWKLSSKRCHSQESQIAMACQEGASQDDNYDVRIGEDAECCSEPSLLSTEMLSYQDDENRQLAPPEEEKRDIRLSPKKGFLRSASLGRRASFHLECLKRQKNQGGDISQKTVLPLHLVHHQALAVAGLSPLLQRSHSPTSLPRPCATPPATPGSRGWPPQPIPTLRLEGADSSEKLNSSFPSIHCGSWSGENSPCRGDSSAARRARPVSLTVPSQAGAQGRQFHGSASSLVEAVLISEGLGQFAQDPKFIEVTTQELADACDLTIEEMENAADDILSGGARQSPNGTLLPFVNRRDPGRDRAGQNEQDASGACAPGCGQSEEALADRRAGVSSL
T1 sequence (P13806 27-960 partner limits assumed, other chains not shown): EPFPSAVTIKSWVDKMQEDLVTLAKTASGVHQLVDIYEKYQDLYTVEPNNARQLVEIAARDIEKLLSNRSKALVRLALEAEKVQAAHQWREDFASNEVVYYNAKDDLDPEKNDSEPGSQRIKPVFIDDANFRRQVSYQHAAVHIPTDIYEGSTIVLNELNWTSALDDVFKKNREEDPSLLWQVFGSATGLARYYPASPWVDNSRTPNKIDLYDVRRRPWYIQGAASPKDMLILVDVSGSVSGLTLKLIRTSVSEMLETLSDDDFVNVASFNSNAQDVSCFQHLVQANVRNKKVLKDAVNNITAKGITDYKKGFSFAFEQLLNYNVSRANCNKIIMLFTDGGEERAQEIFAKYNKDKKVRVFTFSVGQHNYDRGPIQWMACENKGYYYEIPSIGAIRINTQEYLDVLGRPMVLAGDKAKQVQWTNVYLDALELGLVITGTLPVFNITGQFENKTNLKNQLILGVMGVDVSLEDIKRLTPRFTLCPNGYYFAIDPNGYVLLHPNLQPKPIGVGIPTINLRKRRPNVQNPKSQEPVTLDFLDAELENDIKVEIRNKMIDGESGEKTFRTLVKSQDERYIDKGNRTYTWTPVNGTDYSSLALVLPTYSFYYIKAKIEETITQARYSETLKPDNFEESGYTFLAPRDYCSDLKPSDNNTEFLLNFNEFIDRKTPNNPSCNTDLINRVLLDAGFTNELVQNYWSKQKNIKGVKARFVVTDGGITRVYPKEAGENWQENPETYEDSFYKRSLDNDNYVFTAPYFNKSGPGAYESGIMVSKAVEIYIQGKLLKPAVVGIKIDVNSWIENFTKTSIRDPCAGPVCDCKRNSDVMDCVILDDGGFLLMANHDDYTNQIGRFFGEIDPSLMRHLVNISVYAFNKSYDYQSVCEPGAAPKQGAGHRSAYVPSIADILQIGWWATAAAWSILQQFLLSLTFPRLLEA
T1 sequence (P13806 961-1106 partner limits assumed, other chains not shown): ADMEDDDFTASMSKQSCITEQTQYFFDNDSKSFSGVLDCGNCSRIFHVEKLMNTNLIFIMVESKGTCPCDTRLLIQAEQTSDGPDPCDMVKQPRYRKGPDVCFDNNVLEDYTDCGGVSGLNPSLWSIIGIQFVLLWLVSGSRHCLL

CaM kinase [2] = target: T2, CaM kinase (Oryctolagus cuniculus, UniProt O77708); experiment: In vitro CaM kinase activity in left ventricular tissue homogenate; type: biochemical, rabbit; conditions: LV tissue homogenate; 0-100 μmol/l
T2 sequence (O77708 2-533): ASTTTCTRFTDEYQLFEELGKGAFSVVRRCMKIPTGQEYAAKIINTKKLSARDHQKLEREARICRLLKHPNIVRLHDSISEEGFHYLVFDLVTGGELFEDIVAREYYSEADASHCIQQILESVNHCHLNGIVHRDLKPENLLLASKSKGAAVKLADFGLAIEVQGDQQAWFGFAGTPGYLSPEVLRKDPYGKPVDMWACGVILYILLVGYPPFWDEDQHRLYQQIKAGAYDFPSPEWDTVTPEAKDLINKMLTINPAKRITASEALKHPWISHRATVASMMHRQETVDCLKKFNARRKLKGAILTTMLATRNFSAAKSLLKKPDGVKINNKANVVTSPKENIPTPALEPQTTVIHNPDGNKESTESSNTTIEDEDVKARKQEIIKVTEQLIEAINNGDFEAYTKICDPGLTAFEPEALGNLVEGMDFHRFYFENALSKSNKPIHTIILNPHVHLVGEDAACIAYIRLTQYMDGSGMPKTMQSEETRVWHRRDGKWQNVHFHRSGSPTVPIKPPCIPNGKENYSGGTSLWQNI
Protocol: FIG. 5. Effects of KN-93 and KN-92 on CaM kinase activity in vitro. CaM kinase activity in left ventricular tissue homogenate was assayed as described in Example 5, Experimental Methods. […] The solid line represents a fit to the KN-93 data using the Hill equation.
Left ventricular homogenate was prepared as follows: after removal of the heart, it was placed in nominally Ca^2+ free ice-cold HEPES-buffered Tyrode's solution. One to two grams of the left ventricular free wall was cut away, coarsely minced, and suspended in 5-10 ml of cold homogenization buffer (mmol/l: 20 PIPES, 1 EDTA, 1 EGTA, 2 DTT, 10 sodium pyrophosphate, and 50-100 μg/ml leupeptin) at pH 7.0. Tissue suspension was homogenized at 4° C. using 3-10 sec bursts of a Polytron with 30 sec pauses inbetween bursts. The homogenate was then centrifuged at ˜10,000×g for 20 min at 4° C. using a JA-20 rotor. The supemate was removed and used directly in the assay. Protein concentration was measured by the method of Bradford, using BSA as the standard.
(§1) Assay of CaM kinase activity was performed essentially as described by Waldmann et al. with a few modifications. […] Calcium/calmodulin-dependent phosphorylation of the autocamtide 3 substrate was then quantitated as described. Calcium/calmodulin-independent CaM kinase activity was quantitated as described above, but Ca^2+ was omitted from the assay solution. […]

CaM kinase [3] = conditions: cited from earlier work
protein kinase A (PKA) = conditions: cited from earlier work
protein kinase C (PKC) = conditions: cited from earlier work
CaM kinase [4] = target: T2, CaM kinase; experiment: Ca2+-independent CaM kinase activity in LV tissue from isolated rabbit hearts; conditions: clofilium 7.5 μmole/l; KN-93 pretreatment 0.5 μmol/l
Protocol: FIG. 4. Percent calcium-independent CaM kinase activity in isolated rabbit hearts. Maximal (i.e. Ca^2+/calmodulin-dependent) and Ca^2+-independent CaM kinase activities were assayed from left ventricular (LV) tissue homogenates as described in Example 5, Experimental Methods. All hearts were initially isolated under control conditions. A stabilization period of ≧10 min was used for each isolated heart to ensure the absence of EADs, as indicated by monophasic action potentials (MAPs) recorded by a catheter positioned over the LV epicardium. […]
Left ventricular homogenate was prepared as follows: after removal of the heart, it was placed in nominally Ca^2+ free ice-cold HEPES-buffered Tyrode's solution. […] Protein concentration was measured by the method of Bradford, using BSA as the standard.
as §1

[5] = test system: L-type calcium window current; experiment: L-type calcium window current with an EAD-containing action potential voltage clamp wave form; type: cell-based, rabbit; conditions: dialysis with peptide; data not shown
[6] = test system: isolated rabbit ventricular myocytes; experiment: EAD induction in isolated rabbit ventricular myocytes in current clamp with low extracellular potassium; type: cell-based; conditions: cells dialyzed with peptide; for EADs induced (cells with EADs/cells): 1.0 mM extracellular potassium
Protocol: Action potentials were induced in isolated rabbit ventricular myocytes studied in current clamp with low (1.0 mM) extracellular potassium to favor EAD induction.
Action potential recording was performed in the following bath solution (mmol/L): NaCl 140.0, Glucose 10.0, HEPES 5.0, KCl 5.4, CaCl2 2.5, MgCl2 1.0; pH was adjusted to 7.4 with 10 N NaOH. The intracellular pipette solution for action potential recording contained (mmol/L): K aspartate 120.0, HEPES 10.0, EGTA 10.0, Na2ATP 5.0, MgCl2 4.0, CaCl2 3.0; pH was adjusted to 7.2 with 1N KOH. Unless otherwise noted, all chemicals were from Sigma.
Cells were stimulated at 0.1 Hz in whole cell configuration in current clamp mode with 0.1 to 1.0 nA pulses of depolarizing current (1.25×threshold) for 2-3 ms at room temperature (20°-23° C.). Action potentials were low pass filtered at 2 KHz and sampled at 2.5 KHz with a 12-bit analog to digital converter (Digidata 1200 B, Axon Instruments). A long action potential waveform was digitized and stored for application as a voltage command using pClamp 6.03.

isolated heart cells = experiment: Pacing-induced inward current (DAD-linked) in isolated heart cells, action potential voltage clamp; type: cell-based, rabbit; conditions: 0.5 Hz; for cells that developed inward currents: peptide 20 μmole/l dialyzed, 32° C.
Protocol: FIG. 7. CaM kinase inhibition suppresses pacing induced inward current. Isolated heart cells were paced (0.5 Hz, T=32° C.) using a prolonged action potential voltage clamp command wave form. (A) A prolonged action potential was digitized and used as a voltage clamp command waveform for current tracings below. Command membrane potential is on the ordinate and time (for panels A-C) is on the abscissa (B) Inward currents developed after completion of the command wave form in 5/6 cells dialyzed with a control peptide (SEQ ID NO: 2, 20 μmole/l) devoid of CaM kinase inhibitory activity. Cell membrane currents are referenced on the ordinate for both panels B and C.
Isolated heart cells (Experimental Methods, Example 6) were stimulated (0.5 Hz) in voltage clamp using a prolonged action potential wave form (FIG. 7A). Rapid pacing favors intracellular calcium overload. Inward currents that develop in response to rapid pacing are a marker for intracellular calcium overload and they are the basis for arrhythmogenic delayed afterdepolarizations (DADs).
Isolated cells were studied with the action potential command wave form using voltage clamp methodology (Experimental Methods, Example 6). Cells were stimulated at 0.5 Hz and 32° C. (heated stage from Warner Instruments) for up to 100 beats. Recording solutions were identical to those for action potential recording except that the calcium buffer EGTA was omitted from the intracellular solution to favor intracellular calcium overload. The presence or absence of the post-repolarization inward current was noted.

[7] = pretreatment 0.5 μmol/l, clofilium 7.5 μM

Molecule	EADs in response to clofilium (hearts with EADs/hearts) (isolated rabbit hearts; [7])	multiple EADs (hearts with multiple EADs/hearts) (isolated rabbit hearts; [7])	left ventricular developed pressure (LVDP) following clofilium (isolated rabbit hearts; pretreatment 0.5 μmol/l)	apparent voltage dependence of ICa activation [1]	steady state inhibition of peak ICa [1]	effects on protein kinase A (PKA) (protein kinase A (PKA))	effects on protein kinase C (PKC) (protein kinase C (PKC))	Ca2+-independent CaM kinase activity compared to control (CaM kinase [4])	effect on L-type calcium window current [5]	kind of EADs seen [6]	EADs induced (cells with EADs/cells) [6]	cells that developed inward currents (isolated heart cells)	other results
COc1ccc(S(=O)(=O)Nc2ccccc2CN(C)CC=Cc2ccc(Cl)cc2)cc1 [KN-92, 2-N-(4-methoxybenzenesulfonyl)-amino-N-(4-chlorocinnamyl)N-methylbenzylamine]	10/11	7/11	increased significantly	Neither KN-92 or KN-93 shifted	36.2±1.9%	neither KN-93 nor KN-92 have appreciable effects	neither KN-93 nor KN-92 have appreciable effects						inhibition of CaM kinase activity (CaM kinase [2]): did not cause appreciable inhibition; CaM kinase inhibitory activity (CaM kinase [3]; congener used as experimental control): without CaM kinase inhibitory activity
COc1ccc(S(=O)(=O)N(CCO)c2ccccc2CN(C)CC=Cc2ccc(Cl)cc2)cc1 [KN-93, 2-[N-(2-hydroxyethyl)-N-(4-methoxy-benzenesulfonyl)]-amino-N-(4-chlorocinnamyl)-N-methylbenzylamine]	4/10	1/10	completely prevented the increase in LVDP	Neither KN-92 or KN-93 shifted	36.2±4.3%	neither KN-93 nor KN-92 have appreciable effects	neither KN-93 nor KN-92 have appreciable effects	No significant increase					MAP duration prolongation by clofilium (isolated rabbit hearts; pretreatment 0.5 μmol/l): without reducing MAP duration prolongation; peak steady state ICa inhibition relative to KN-92 ([1]; 1.0 μmol/l): more effective ICa inhibitor; Ki (CaM kinase [3]; read-out: reported Ki, competitive inhibition of calmodulin binding to CaM kinase): 0.37 µM
CCCCCCC[N+](CC)(CC)CCCCc1ccc(Cl)cc1 [clofilium]								increased significantly					EAD induction by clofilium in hearts without any pretreatment (isolated rabbit hearts; clofilium 7.5 μM, no pretreatment): 8/8
KKALHAQERVDCL [SEQ ID NO: 2]									no significant effect	complex and repetitive	11/15	5/6	
KKALHRQEAVDCL [SEQ ID NO: 1]									an increase in the current was prevented	only single EADs	4/15	0/5	IC50 (protein kinase A (PKA)): ≥ 500 µM; IC50 (protein kinase C (PKC)): ≥ 500 µM
Ryanodine													cells in which development of pacing induced inward currents was prevented (isolated heart cells; 10 μmole/l): 2/2
